Experimental data: patent publication US20020137715A1, “Blocking Sp1 transcription factor broadly inhibits extracellular matrix gene expression in vitro and in vivo: implications for the treatment of tissue fibrosis” (priority 2001, published 2002)

Key:
COL1A2 promoter = experiment: Decoy oligonucleotides on COL1A2/CAT promoter activity in dermal fibroblasts (FIG. 5A); format: cell-based, human; details: −3500COL1A2/CAT, 24 h; for decrease of COL1A2 promoter activity: various amounts added to culture medium
Experimental: (§1) FIG. 5. Decoy Sp1 oligonucleotides inhibit COL1A2 promoter activity in vitro and in vivo. A, Confluent human dermal fibroblast cultures are transfected with 5 μg of −500COL1A2/CAT reporter gene construct. After glycerol shock, increasing amounts (2, 5, 10 μg) of Sp1 (open bars) or mSp1 (hatched bars) oligonucleotides are added to the culture medium. Forty hours later, CAT activity is determined and compared to that of cultures without oligonucleotides (closed bar). Relative promoter activity (mean±SD) of three separate experiments performed in duplicate is presented. B, Four transgenic mice carrying 17 kb of mouse COL1A2 promoter linked to the luciferase gene in their genome are injected subcutaneously at distant sites (approx. 2 cm apart) with 15 μg of either Sp1 (open bar) or mSp1 (hatched bar) oligonucleotides in 25 μl of H2O. After a 30-hr incubation, animals are sacrified and luciferase activity is determined in the skin surrounding the injection sites using identical amounts of protein extracts (40 μg). A non-injected skin area is used as control (solid bar).
Transient cell transfection and CAT assays. Transient cell transfections are performed with the calcium phosphate/DNA co-precipitation procedure. CAT activity is measured using [^14C]chloramphenicol as substrate (Gorman et al, Mol Cell Biol 2: 1044-1051, 1982) followed by thin layer chromatography and quantitation with a phosphorimager.
Decoy oligonucleotides. In some in vitro experiments decoy double-stranded oligonucleotides are used in an attempt to interfere with Sp1 binding to its cognate cis-elements within the COL1A2 promoter. […] 24 h later, CAT activity, representing promoter activity, is determined.
Decoy Sp1 oligonucleotides inhibit COL1A2 promoter activity in vitro and in vivo. Since Sp1 is fundamental for high expression of several ECM genes, short oligonucleotides bearing a consensus Sp1 binding sequence are analyzed for their efficacy as decoys to decrease collagen promoter activity. […] Promoter activity is determined 24 h later. […]

human dermal fibroblasts = format: cell-based
Sp1 = Sp1 (Homo sapiens, UniProt P08047); experiment: EMSA binding of Sp1 to oligonucleotide; details: EMSA experiments
Chain of Sp1 (P08047 whole entry): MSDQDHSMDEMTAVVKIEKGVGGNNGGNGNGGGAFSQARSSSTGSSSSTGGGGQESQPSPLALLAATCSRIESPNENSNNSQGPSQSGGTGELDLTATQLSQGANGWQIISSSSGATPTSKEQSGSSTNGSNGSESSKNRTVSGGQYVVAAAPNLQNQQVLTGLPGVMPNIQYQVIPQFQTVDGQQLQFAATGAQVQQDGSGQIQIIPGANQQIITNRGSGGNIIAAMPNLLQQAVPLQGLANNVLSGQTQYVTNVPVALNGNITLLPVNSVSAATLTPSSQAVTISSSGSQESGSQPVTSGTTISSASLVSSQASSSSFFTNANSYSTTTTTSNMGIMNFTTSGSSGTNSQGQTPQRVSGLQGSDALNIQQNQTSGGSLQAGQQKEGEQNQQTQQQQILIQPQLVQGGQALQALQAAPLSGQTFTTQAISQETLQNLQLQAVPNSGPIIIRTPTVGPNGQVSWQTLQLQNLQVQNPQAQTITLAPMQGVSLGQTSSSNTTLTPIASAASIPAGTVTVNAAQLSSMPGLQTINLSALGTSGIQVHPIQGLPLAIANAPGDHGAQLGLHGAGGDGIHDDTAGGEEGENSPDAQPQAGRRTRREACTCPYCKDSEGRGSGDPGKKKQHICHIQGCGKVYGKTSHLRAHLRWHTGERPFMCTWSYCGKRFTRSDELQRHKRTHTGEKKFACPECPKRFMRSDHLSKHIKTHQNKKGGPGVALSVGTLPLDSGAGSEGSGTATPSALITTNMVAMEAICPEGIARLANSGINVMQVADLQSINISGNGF
Experimental: Electrophoresis mobility shift assays (EMSA). A 22-mer consensus Sp1 oligonucleotide 5′-[…]-3′ was used as a probe to determine Sp1/DNA interactions. For supershift experiments, nuclear extracts (5 μg) are incubated for 2 h on ice with an anti-Sp1 antibody (Santa Cruz Biotechnologies, Santa Cruz, Calif.) prior to the binding reactions. Binding mixtures are separated electrophoretically on native 4% acrylamide gels, as described previously (Vindevoghel et al, 1997).
Decoy Sp1 oligonucleotides inhibit COL1A2 promoter activity in vitro and in vivo. Since Sp1 is fundamental for high expression of several ECM genes, short oligonucleotides bearing a consensus Sp1 binding sequence are analyzed for their efficacy as decoys to decrease collagen promoter activity. For this purpose. two approaches are used. First, human dermal fibroblasts are transfected with the −3500COL1A2/CAT construct, and various amounts of either wild-type or mutant Sp1 double-stranded oligonucleotides (SEQ. ID. NO:2 and SEQ. ID. NO: 3. respectively) are added to the culture medium. Promoter activity is determined 24 h later. […] Maximal inhibition (55%) is observed with addition of […] of Sp1 oligonucleotide.

mouse COL1A2 promoter = experiment: Decoy oligonucleotides in COL1A2/luciferase transgenic mice (FIG. 5B); format: in vivo; details: 15 μg intradermally; COL1A2/lux transgenic mice; 24 hours; vs control skin
Experimental: as §1, with “B, Four transgenic mice carrying 17 kb of mouse COL1A2 promoter linked to the luciferase gene in their genome are injected subcutaneously at distant sites (approx. 2 cm apart) with 15 μg of either Sp1 (open bar) or mSp1 (hatched bar) oligonucleotides in 25 μl of H2O.” left out, “A non-injected skin area is used as control (solid bar).” left out
Treatment of transgenic mice. […] Luciferase activity using identical amounts of extracted proteins is determined with a commercial assay kit (Promega).
Next, decoy Sp1 experiments are performed in a transgenic mouse model in which 17 kb of the mouse COL1A2 promoter drives the expression of the luciferase gene. […] Luciferase activity is determined 24 hours later in the skin region surrounding the injections. […]

COL7A1 promoter = experiment: Decoy oligonucleotides on COL7A1 promoter activity; format: cell-based, human; details: compared with COL1A2 promoter

Row | Substance | decrease of COL1A2 promoter activity (COL1A2 promoter) | cellular toxicity (human dermal fibroblasts) | binding of Sp1 to the oligonucleotide's Sp1 binding site (Sp1) | reduction of COL1A2 promoter activity (luciferase activity in skin) (mouse COL1A2 promoter) | Maximal inhibition of COL1A2 promoter activity (COL1A2 promoter; 15 μg/plate) | inhibition of COL7A1 promoter (COL7A1 promoter)
1 | mSp1: mutant double-stranded oligonucleotide used as a control, 5′-ATTCGATCGTAGCGATGCGAGC-3′ (double-stranded, further chemistry not given here) [reference compound] | not | No cellular toxicity | incapable of binding Sp1 | no effect | – | –
2 | Sp1 oligonucleotide: 22-mer consensus Sp1 double-stranded decoy oligonucleotide, 5′-ATTCGATCGGGGCGGGGCGAGC-3′ (double-stranded, further chemistry not given here) | efficiently decreases COL1A2 promoter activity in a dose-dependent manner | No cellular toxicity | – | about 70% | 55% | equally inhibited
